In PubChem BioAssay (NCI):
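The compound was tested at five concentrations on cells cultured in 96-well plates, with a 48-hour exposure period. Abbreviation: GI50, concentration required for 50% inhibition of growth. TGI: concentration producing complete growth inhibition.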

What was measured:
Assay in all cases: growth of human tumour cells (NCI), 48 h
KM12 colon = tested on: KM12 colon
SNB-75 CNS = tested on: SNB-75 CNS
U251 CNS = tested on: U251 CNS
SN12C renal = tested on: SN12C renal
TK-10 renal = tested on: TK-10 renal
MCF7 breast = tested on: MCF7 breast
NCI/ADR-RES ovarian = tested on: NCI/ADR-RES ovarian
ACHN renal = tested on: ACHN renal
CCRF-CEM leukemia = tested on: CCRF-CEM leukemia
SW-620 colon = tested on: SW-620 colon
OVCAR-5 ovarian = tested on: OVCAR-5 ovarian
PC-3 prostate = tested on: PC-3 prostate
NCI-H23 lung = tested on: NCI-H23 lung
HL-60(TB) leukemia = tested on: HL-60(TB) leukemia
MDA-MB-435 = tested on: MDA-MB-435
786-0 renal = tested on: 786-0 renal
SK-MEL-2 melanoma = tested on: SK-MEL-2 melanoma
HS 578T breast = tested on: HS 578T breast
RPMI-8226 leukemia = tested on: RPMI-8226 leukemia
UACC-62 melanoma = tested on: UACC-62 melanoma
HCT-15 colon = tested on: HCT-15 colon
NCI-H460 lung = tested on: NCI-H460 lung
DU-145 prostate = tested on: DU-145 prostate
NCI-H522 lung = tested on: NCI-H522 lung
COLO 205 colon = tested on: COLO 205 colon
HCT-116 colon = tested on: HCT-116 colon
MALME-3M melanoma = tested on: MALME-3M melanoma
OVCAR-8 ovarian = tested on: OVCAR-8 ovarian
M14 melanoma = tested on: M14 melanoma

For `COC1=C[C@]23CCC(=O)N2CCc2cc4c(cc2[C@@H]3[C@@H]1OC(=O)[C@H](C)O)OCO4`, the GI50 (KM12 colon) was 10.4 µM, the TGI (KM12 colon) was > 52 µM and the GI50 (SNB-75 CNS) was 6.59 µM. The TGI (SNB-75 CNS) was 30.3 µM, the GI50 (U251 CNS) was 6.76 µM and the TGI (U251 CNS) was 36.4 µM. The GI50 (SN12C renal) was 14.5 µM, the TGI (SN12C renal) was > 52 µM and the GI50 (TK-10 renal) was 15.8 µM. The TGI (TK-10 renal) was > 52 µM, the GI50 (MCF7 breast) was 1.54 µM and the TGI (MCF7 breast) was 10.2 µM. The GI50 (NCI/ADR-RES ovarian) was 13.7 µM, the TGI (NCI/ADR-RES ovarian) was > 52 µM and the GI50 (ACHN renal) was 3.65 µM. The TGI (ACHN renal) was 30.4 µM, the GI50 (CCRF-CEM leukemia) was 4.77 µM and the TGI (CCRF-CEM leukemia) was 41.6 µM. For the same compound, the GI50 (SW-620 colon) was 8.06 µM, the TGI (SW-620 colon) was > 52 µM and the GI50 (OVCAR-5 ovarian) was 11.4 µM. The TGI (OVCAR-5 ovarian) was > 52 µM, the GI50 (PC-3 prostate) was 6.71 µM and the TGI (PC-3 prostate) was 44.6 µM. For the same compound, the GI50 (NCI-H23 lung) was 7.5 µM, the TGI (NCI-H23 lung) was 24.5 µM and the GI50 (HL-60(TB) leukemia) was 2.01 µM. The TGI (HL-60(TB) leukemia) was > 52 µM, the GI50 (MDA-MB-435) was 11.2 µM and the TGI (MDA-MB-435) was 45.5 µM. For the same compound, the GI50 (786-0 renal) was 11 µM, the TGI (786-0 renal) was 42.9 µM and the GI50 (SK-MEL-2 melanoma) was 12.6 µM. The TGI (SK-MEL-2 melanoma) was > 52 µM, the GI50 (HS 578T breast) was 8.04 µM and the TGI (HS 578T breast) was 35.6 µM. It also gave a GI50 (RPMI-8226 leukemia) of 3.23 µM, a TGI (RPMI-8226 leukemia) of 21 µM and a GI50 (UACC-62 melanoma) of 9.25 µM. The TGI (UACC-62 melanoma) was > 52 µM, the GI50 (HCT-15 colon) was 5.08 µM and the TGI (HCT-15 colon) was 25 µM. It also gave a GI50 (NCI-H460 lung) of 1.65 µM, a TGI (NCI-H460 lung) of 13.1 µM and a GI50 (DU-145 prostate) of 12.1 µM. For the same compound, the TGI (DU-145 prostate) was > 52 µM, the GI50 (NCI-H522 lung) was 3.89 µM and the TGI (NCI-H522 lung) was 17.7 µM. It also gave a GI50 (COLO 205 colon) of 7.67 µM, a TGI (COLO 205 colon) of 31.5 µM and a GI50 (HCT-116 colon) of 2.33 µM. The TGI (HCT-116 colon) was > 52 µM, the GI50 (MALME-3M melanoma) was 2.62 µM and the TGI (MALME-3M melanoma) was 16.2 µM. For the same compound, the GI50 (OVCAR-8 ovarian) was 11.7 µM, the TGI (OVCAR-8 ovarian) was 48.9 µM and the GI50 (M14 melanoma) was 6.74 µM. The TGI (M14 melanoma) was 15.8 µM.
